Experimental data published in ChEMBL document CHEMBL1201862, “PubChem BioAssay data set” (2004).
The source made the active and inactive calls.

Assays:
[1] = microbe, parasite or virus in culture; assay type: functional; conditions: Mycobacterium tuberculosis
cells [2] = assay type: functional, cell-based
cells [3] = assay type: functional, cell-based; remark: listed apart in the source
[4] = biological target: T1, Histone-lysine N-methyltransferase NSD2 (Homo sapiens, UniProt O96028); assay type: biochemical
T1 sequence (O96028 whole entry): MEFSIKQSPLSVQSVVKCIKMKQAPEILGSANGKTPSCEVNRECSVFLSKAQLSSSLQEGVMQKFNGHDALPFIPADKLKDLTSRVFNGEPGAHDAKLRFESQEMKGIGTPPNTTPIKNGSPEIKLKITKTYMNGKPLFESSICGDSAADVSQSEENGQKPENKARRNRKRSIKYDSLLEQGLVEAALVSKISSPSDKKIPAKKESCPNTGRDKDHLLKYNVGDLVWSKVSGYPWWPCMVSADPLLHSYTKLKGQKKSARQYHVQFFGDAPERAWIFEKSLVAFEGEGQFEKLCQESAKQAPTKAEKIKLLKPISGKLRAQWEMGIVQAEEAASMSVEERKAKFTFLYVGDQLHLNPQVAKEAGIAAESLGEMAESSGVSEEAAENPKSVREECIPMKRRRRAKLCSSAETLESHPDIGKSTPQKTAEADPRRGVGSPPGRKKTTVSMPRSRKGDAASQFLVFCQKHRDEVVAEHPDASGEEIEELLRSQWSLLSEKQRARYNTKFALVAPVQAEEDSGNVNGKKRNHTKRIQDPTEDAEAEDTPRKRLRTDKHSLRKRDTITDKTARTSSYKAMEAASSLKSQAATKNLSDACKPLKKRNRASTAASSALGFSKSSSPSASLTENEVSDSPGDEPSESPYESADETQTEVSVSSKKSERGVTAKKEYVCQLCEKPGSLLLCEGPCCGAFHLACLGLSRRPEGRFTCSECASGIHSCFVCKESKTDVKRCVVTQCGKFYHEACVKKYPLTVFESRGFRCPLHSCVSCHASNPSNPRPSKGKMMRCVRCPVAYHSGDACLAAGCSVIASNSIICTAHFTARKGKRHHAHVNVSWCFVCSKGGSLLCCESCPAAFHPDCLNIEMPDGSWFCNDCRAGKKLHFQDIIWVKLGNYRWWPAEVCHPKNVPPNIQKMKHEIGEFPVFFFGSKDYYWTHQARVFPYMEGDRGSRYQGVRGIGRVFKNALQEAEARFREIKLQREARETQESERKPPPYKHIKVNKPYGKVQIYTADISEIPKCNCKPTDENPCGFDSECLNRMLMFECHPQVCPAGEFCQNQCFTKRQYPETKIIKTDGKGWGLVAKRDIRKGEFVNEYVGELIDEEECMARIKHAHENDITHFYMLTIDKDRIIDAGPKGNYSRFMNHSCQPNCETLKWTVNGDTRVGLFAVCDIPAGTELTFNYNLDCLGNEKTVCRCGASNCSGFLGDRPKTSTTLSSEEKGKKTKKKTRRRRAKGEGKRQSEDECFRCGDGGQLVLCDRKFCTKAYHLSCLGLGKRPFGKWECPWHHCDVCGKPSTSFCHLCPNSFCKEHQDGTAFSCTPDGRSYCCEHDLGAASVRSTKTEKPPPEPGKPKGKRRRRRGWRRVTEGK

Cytochrome P450 3A4 = Cytochrome P450 3A4 (Homo sapiens, UniProt P08684);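 further: CYP3A4 tested as one member of a cytochrome P450 panel screen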
Cytochrome P450 3A4, sequence (P08684 whole entry): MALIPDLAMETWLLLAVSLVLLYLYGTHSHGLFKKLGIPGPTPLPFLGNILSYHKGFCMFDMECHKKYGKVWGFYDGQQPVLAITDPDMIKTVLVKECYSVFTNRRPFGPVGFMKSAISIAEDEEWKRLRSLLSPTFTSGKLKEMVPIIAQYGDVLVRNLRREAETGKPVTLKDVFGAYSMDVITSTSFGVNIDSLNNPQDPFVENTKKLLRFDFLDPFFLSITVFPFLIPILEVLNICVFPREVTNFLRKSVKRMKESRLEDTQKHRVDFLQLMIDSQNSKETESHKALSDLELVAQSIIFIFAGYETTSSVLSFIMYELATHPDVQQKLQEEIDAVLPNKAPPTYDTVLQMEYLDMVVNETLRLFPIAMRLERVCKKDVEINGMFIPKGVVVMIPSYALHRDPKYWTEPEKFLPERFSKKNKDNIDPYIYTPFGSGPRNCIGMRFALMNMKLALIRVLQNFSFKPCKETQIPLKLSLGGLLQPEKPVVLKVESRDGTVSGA

Cytochrome P450 2C9 = Cytochrome P450 2C9 (Homo sapiens, UniProt P11712)
Cytochrome P450 2C9, sequence (P11712 whole entry): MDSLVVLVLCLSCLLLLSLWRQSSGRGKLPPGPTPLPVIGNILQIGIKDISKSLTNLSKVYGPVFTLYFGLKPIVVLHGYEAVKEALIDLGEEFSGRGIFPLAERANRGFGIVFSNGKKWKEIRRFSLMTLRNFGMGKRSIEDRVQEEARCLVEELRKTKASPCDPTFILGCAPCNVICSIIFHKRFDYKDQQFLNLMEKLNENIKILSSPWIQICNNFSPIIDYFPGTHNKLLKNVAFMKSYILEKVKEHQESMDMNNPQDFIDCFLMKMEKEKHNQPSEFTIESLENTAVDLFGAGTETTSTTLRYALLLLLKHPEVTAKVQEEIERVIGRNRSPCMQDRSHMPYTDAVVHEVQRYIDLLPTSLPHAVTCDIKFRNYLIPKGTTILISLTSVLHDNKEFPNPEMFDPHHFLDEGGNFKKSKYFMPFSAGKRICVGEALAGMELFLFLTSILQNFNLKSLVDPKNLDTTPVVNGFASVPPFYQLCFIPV

Paired box protein Pax-8 = Paired box protein Pax-8 (Homo sapiens, UniProt Q06710); assay: inhibitors of PAX8-driven TPO luciferase reporter, dose response, RMG-I cells, cherry-pick (AID 687027); assay type: functional, cell-based;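 further: luciferase reporter driven by Pax8 target thyroperoxidase promoter measured by SteadyGlo luminescence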
Paired box protein Pax-8, sequence (Q06710 whole entry): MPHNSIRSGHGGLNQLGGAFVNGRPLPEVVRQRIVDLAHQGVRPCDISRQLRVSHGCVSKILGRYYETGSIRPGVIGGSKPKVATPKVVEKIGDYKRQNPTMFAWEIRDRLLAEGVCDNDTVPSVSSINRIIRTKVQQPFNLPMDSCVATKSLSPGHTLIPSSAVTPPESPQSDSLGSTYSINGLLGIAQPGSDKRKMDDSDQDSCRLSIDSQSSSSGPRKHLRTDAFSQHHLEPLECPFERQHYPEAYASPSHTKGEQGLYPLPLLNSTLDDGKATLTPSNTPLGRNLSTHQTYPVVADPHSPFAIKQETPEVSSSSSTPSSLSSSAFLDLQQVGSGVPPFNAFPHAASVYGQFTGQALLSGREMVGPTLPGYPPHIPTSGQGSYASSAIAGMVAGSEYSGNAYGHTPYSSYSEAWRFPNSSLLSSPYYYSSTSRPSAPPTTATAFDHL

[5] = NIH:OVCAR-3 ovarian cancer cell cytotoxicity, dose response, PAX8 inhibitor project, plate reader, dry powder samples (AID 743044); assay type: functional, cell-based
[6] = off-target signal loss in HeLa-CEM21 co-culture – HeLa F-luc CTL cells, cherry-picked, counter-screen for HIV-1 Env fusion inhibitor project, dose response (AID 652040); assay type: functional, cell-based;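 further: potency for signal decrease marking cytotoxic or nonspecific inhibition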
[7] = inhibitors of HIV Env-driven cell fusion, dose response, cherry-pick (AID 652057); assay type: functional, cell-based
[8] = inhibitors of clade B AD8 Env fusion, dose response, cell-based, cherry-pick (AID 652062); assay type: functional;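 further: luciferase signal from cell-cell fusion driven by HIV-1 clade B AD8 Env; potency is for inhibitors of fusion seen as a drop in luminescence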
[9] = inhibitors of firefly luciferase expression or activity, dose response, H4 neuroglioma cells, luminescence (AID 1990); assay type: functional, cell-based
[10] = ZM109 Env clade C HIV-1 fusion inhibitors, dose response, HeLa effector, CEM target cells, luciferase, cherry-pick (AID 652058); assay type: functional, cell-based
[11] = Luminescence Cell-Based Dose Response HTS to Identify Inhibitors of 5'UTR Stem-Loop Driven Prion Protein mRNA Translation in H4 Neuroglioblastoma Cells. [Related pubchem assays: 1827 (Project Summary), 1813 (Primary HTS)]; assay type: functional
[12] = MC4R antagonists, dose response, counter-screen for LGR2 antagonist project, cell-based, plate reader, cherry pick (AID 743444); assay type: functional;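 further: transfected HEK 293 cells stimulated with alpha-MSH peptide; potency of inhibitors of the alpha-MSH evoked signal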
[13] = LGR2 antagonists, dose response, cell-based, HEK293, CRE-luciferase reporter, cherry pick, set 2 (AID 743343); assay type: functional;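 further: transfected cells were stimulated with diluted bursicon conditioned medium after compound addition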
[14] = biological target: FAD-linked sulfhydryl oxidase ALR (Homo sapiens, UniProt P55789); assay: inhibitors of human ALR sulfhydryl oxidase, dose response, biochemical, H2O2 detection, luminescence, cherry-pick (AID 493248)
FAD-linked sulfhydryl oxidase ALR, sequence (P55789 whole entry): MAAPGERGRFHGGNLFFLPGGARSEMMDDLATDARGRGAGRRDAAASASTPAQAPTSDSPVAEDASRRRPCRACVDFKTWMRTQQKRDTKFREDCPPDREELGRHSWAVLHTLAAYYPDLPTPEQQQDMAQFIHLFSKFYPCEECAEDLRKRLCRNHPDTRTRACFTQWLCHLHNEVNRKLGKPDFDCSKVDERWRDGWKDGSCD

[15] = HepG2 cell cytotoxicity, dose response, cytotoxicity control, plate reader, cherry-pick, antagonist series (AID 743416); assay type: functional, cell-based
Leucine aminopeptidase = biological target: T2, Leucine aminopeptidase (Plasmodium falciparum 3D7, UniProt Q8IL11); assay: P. falciparum M17LAP inhibitors, primary screen, biochemical, fluorogenic H-Leu-NHMec substrate, 1536-well (AID 1619); assay type: functional
T2 sequence (Q8IL11 whole entry): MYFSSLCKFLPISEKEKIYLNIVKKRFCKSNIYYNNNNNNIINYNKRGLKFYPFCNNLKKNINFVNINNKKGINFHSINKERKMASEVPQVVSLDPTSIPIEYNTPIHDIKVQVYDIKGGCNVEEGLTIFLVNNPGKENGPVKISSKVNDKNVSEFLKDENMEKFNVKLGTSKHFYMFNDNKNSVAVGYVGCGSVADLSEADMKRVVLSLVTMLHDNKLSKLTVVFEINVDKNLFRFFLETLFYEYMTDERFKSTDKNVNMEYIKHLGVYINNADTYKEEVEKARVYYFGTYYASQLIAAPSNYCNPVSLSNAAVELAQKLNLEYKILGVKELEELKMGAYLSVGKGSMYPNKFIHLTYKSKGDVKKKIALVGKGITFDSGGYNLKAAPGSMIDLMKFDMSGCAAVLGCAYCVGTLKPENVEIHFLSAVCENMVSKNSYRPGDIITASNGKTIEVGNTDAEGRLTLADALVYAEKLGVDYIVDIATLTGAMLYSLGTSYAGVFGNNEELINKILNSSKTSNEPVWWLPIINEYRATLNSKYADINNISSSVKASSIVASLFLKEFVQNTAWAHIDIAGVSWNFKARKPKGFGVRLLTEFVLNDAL

Cytochrome P450 2C19 = Cytochrome P450 2C19 (Homo sapiens, UniProt P33261); assay: Cytochrome panel assay with activity outcomes. Panel member name: p450-cyp2c19 Compounds with AC50 equal or less than 10 uM are considered active; assay type: functional; conditions: read-out: AC50
Cytochrome P450 2C19, sequence (P33261 whole entry): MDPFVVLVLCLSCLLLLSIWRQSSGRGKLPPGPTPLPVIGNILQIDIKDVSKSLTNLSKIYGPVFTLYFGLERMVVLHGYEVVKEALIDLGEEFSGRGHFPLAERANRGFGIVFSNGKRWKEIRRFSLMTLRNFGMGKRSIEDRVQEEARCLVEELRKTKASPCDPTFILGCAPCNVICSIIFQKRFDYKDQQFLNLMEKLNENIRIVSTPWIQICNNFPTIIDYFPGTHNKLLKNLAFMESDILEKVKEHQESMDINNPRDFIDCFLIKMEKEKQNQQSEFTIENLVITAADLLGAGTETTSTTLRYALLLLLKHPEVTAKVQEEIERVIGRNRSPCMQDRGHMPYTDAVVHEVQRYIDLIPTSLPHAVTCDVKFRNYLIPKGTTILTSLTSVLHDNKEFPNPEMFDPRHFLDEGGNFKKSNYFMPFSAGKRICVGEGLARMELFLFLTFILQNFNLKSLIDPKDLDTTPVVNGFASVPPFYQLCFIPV

[16] = P. falciparum Dd2 growth inhibitors, dose response, SYBR Green, cherry-picked samples (AID 1159567); assay type: functional, cell-based
H9c2 = assay: cells; assay type: functional, cell-based; conditions: Rattus norvegicus, H9c2, Myocardium
Cytochrome P450 2D6 = Cytochrome P450 2D6 (Homo sapiens, UniProt P10635);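 further: CYP2D6 member of a cytochrome P450 panel assay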
Cytochrome P450 2D6, sequence (P10635 whole entry): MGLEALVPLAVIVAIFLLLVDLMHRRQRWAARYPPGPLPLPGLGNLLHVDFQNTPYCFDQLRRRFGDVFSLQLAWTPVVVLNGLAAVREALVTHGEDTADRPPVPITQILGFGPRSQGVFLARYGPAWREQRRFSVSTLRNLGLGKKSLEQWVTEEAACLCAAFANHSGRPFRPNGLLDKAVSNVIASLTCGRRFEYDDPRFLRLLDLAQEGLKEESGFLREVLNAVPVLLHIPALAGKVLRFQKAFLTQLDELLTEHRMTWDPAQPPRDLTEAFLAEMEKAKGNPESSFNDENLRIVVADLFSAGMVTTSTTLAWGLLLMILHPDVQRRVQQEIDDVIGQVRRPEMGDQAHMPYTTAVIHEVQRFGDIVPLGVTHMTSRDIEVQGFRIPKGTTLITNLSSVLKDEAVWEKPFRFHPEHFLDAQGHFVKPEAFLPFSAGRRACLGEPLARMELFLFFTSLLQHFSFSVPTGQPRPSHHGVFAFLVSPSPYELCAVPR

Nonstructural protein 1 = Nonstructural protein 1 (Influenza A virus, UniProt Q194T2); assay type: functional, Influenza A virus (A/California/07/2009(H1N1))
Nonstructural protein 1, sequence (Q194T2 whole entry): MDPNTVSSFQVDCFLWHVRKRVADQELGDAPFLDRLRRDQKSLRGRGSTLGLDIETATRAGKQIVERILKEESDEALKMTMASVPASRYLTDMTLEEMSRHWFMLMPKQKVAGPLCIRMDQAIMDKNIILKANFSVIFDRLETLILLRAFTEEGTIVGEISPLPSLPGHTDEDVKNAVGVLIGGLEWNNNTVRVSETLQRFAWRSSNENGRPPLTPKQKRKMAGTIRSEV

BJ [17] = assay: cells; assay type: functional, cell-based; conditions: Homo sapiens
BJ [18] = assay: cytotoxicity toward BJ-TERT-LT-ST fibroblasts, dose response, cell-based, RAS-independent, luminescence (AID 1935); assay type: functional; conditions: Homo sapiens;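 further: BJ fibroblasts immortalized with TERT plus LT and ST oncogenes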
BJ [19] = assay: cytotoxicity toward BJ-TERT fibroblasts, dose response, cell-based, RAS-independent, luminescence (AID 1933); assay type: functional; conditions: Homo sapiens
[20] = cytotoxicity toward DRD oncogenic fibroblasts, dose response, cell-based, non-viral oncogenic, luminescence (AID 1934); assay type: functional; conditions: Homo sapiens

## CC1(C)Cc2c(C#N)c(N3CCN(C(=O)c4ccccc4)CC3)nc(Cc3ccccc3)c2CO1
[1]
  CC50: 39 µM (active)

## CC(NC1=NCCS1)c1ccccc1 (configuration not stated)
Cells [2]
  EC50: > 29.9 µM (inactive)
Cells [3]
  IC50: > 29.9 µM (inactive)

## CCCn1c2c(c(O)c(C(=O)NCCCN(CC)CC)c1=O)CCCC2
[4]
  AC50: > 20 µM (inactive)

## CN1C(C(=O)NCCc2cccs2)CC2Cn3c(nc4ccccc43)C21 (configuration not stated)
Cells [2]
  EC50: > 29.9 µM (inactive)
Cells [3]
  IC50: > 29.9 µM (inactive)

## COc1ccc(Oc2ncc3nc(-c4cn(C)c5ccccc45)c(=O)n(C)c3n2)cc1
Cytochrome P450 3A4
  AC50: 15.8 µM (inconclusive)
Cytochrome P450 2C9
  AC50: inconclusive

## C[C@@H]1CN([C@H](C)CO)C(=O)c2cc(NS(=O)(=O)c3cccs3)ccc2O[C@@H](C)CCCCO[C@@H]1CN(C)Cc1ccc(C(F)(F)F)cc1
Paired box protein Pax-8
  AC50: 4.55 µM (active)
[5]
  AC50: 58.7 µM (active)

## COc1ccc(NC(=O)c2cc(CC(C)C)nc3ccccc23)cc1
[6]
  AC50: 1.06 µM (active)
[7]
  AC50: 0.655 µM (active)
[8]
  AC50: 1.11 µM (active)
[9]
  EC50: > 120 µM (not active)
[10]
  AC50: < 0.26 µM (active)
[11]
  EC50: > 120 µM (not active)

## CN(C)c1ccc(C(=O)Nc2nc3c(s2)CCCC3)cc1
[12]
  AC50: 11.4 µM (active)
[13]
  AC50: 8.81 µM (active)
[14]
  AC50: 0.188 µM (active)
[15]
  AC50: 51.1 µM (active)

## Cc1noc(NS(=O)(=O)c2ccc(NC(=O)CSc3nc4ccccc4s3)cc2)c1C
Leucine aminopeptidase
  IC50: 15.3 µM (active)

## CSc1cccc(CNC(=O)C2CCC(=O)N(Cc3cccc(C(F)(F)F)c3)C2)c1 (configuration not stated)
[1]
  CC50: > 40 µM (active)

## Cc1ccc(OCC(=O)Nc2ccc(O)c(C(=O)O)c2)cc1C
Leucine aminopeptidase
  IC50: 19.5 µM (active)

## COc1ccccc1CNc1cc(-c2cccc(NS(C)(=O)=O)c2)ncn1
Cytochrome P450 2C19
  AC50: 20 µM (inconclusive)
Cytochrome P450 2C9
  AC50: inconclusive

## C[C@@H]1CN([C@@H](C)CO)C(=O)c2cc(C#Cc3ccccc3)cnc2O[C@H]1CN(C)C(=O)CN(C)C
[16]
  AC50: 5.45 µM (active)

## Cc1nc2cnc(N(C)C)nc2n(Cc2ccc(F)cc2)c1=O
Cytochrome P450 2C9
  AC50: inconclusive

## C=CCC1C=C(Cc2ccccc2)CC(CC=C)N1 (configuration not stated)
[4]
  AC50: > 20 µM (inactive)

## CCC(=O)Nc1cccc(-c2nnc(-c3cccc(NC(=O)CC)c3)o2)c1
H9c2
  IC50: > 79 µM (inactive)
Cytochrome P450 2D6
  AC50: 17.8 µM (inconclusive)
Cytochrome P450 2C9
  AC50: inconclusive

## COc1ccc(SC[C@H](Cc2ccccc2)N2CCN(CCc3ccccc3)CCC2=O)cc1
[1]
  CC50: > 40 µM (active)

## CCOc1cccc(/C=N/N2C(=O)CSC2=S)c1O
Nonstructural protein 1
  IC50: 1.83 µM (active)

## C/C=C/c1ccc2n(c1=O)C[C@H]1[C@H](CO)[C@@H](C(=O)N3CCC(Cc4ccccc4)CC3)N(CCC)[C@@H]21.C/C=C\c1ccc2n(c1=O)C[C@H]1[C@H](CO)[C@@H](C(=O)N3CCC(Cc4ccccc4)CC3)N(CCC)[C@@H]21
[16]
  AC50: 15.8 µM (active)

## COCCOC(=O)c1[nH]c2c(c1C)C(=O)CC(c1cccs1)C2 (configuration not stated)
BJ [17]
  EC50: 66.4 µM (active)
BJ [18]
  EC50: 3.8 µM (active)
BJ [19]
  EC50: 4.56 µM (active)
[20]
  EC50: 12.9 µM (active)

## CC(=O)NC1C(c2nc3ccccc3s2)=C(c2ccccc2)C(=O)N1c1ccc(C)cc1 (configuration not stated)
[1]
  CC50: > 40 µM (active)

## O=S(=O)(c1ccc(NC(=S)NN=C2CCCCC2)cc1)N1CCOCC1
Nonstructural protein 1
  IC50: 24.8 µM (active)

## COc1ccc(/N=C(/C2=C(O)CCC2)C2CCCCC2)cc1
[1]
  CC50: > 40 µM (active)

## O=S(=O)(c1ccc(Cl)cc1)N1CCCN(c2nc3ccc(Cl)cc3s2)CC1
[6]
  AC50: 4.14 µM (active)
[7]
  AC50: 3.94 µM (active)
[8]
  AC50: 5.18 µM (active)
[10]
  AC50: 0.922 µM (active)

## Cc1nc2ncnn2c(N2CCCC(C(=O)Nc3ccc4c(c3)CCC4)C2)c1C (configuration not stated)
[6]
  AC50: 3.66 µM (active)
[7]
  AC50: 3.21 µM (active)
[8]
  AC50: 8.01 µM (active)
[10]
  AC50: 17.1 µM (active)

## Cc1[nH]c2ccccc2c1CN1CCc2ccccc2C1
Cells [2]
  EC50: > 29.9 µM (inactive)
Cells [3]
  IC50: > 29.9 µM (inactive)

## CCOc1ccccc1NC1=C(Cl)C(=O)N(Cc2ccccc2)C1=O
BJ [17]
  EC50: > 150 µM (not active)
BJ [18]
  EC50: > 150 µM (not active)
BJ [19]
  EC50: > 150 µM (not active)
[20]
  EC50: > 150 µM (not active)

## CNCc1ccccc1Sc1ccc(OC)c(OC)c1
[4]
  AC50: > 20 µM (inactive)

## CC1(C)[N+]([O-])=CC(c2cccs2)=[N+]1[O-]
Leucine aminopeptidase
  IC50: 22.7 µM (active)
